Source: patent US10526327B2, “Histone demethylase inhibitors” (CELGENE QUANTICEL RESEARCH, INC., priority 2013, dated 2020)

Molecular target: T1, Jarid1A (Homo sapiens, UniProt P29375)
T1 construct: purchased BPS Bioscience 50110
T1 sequence (P29375 1-1090): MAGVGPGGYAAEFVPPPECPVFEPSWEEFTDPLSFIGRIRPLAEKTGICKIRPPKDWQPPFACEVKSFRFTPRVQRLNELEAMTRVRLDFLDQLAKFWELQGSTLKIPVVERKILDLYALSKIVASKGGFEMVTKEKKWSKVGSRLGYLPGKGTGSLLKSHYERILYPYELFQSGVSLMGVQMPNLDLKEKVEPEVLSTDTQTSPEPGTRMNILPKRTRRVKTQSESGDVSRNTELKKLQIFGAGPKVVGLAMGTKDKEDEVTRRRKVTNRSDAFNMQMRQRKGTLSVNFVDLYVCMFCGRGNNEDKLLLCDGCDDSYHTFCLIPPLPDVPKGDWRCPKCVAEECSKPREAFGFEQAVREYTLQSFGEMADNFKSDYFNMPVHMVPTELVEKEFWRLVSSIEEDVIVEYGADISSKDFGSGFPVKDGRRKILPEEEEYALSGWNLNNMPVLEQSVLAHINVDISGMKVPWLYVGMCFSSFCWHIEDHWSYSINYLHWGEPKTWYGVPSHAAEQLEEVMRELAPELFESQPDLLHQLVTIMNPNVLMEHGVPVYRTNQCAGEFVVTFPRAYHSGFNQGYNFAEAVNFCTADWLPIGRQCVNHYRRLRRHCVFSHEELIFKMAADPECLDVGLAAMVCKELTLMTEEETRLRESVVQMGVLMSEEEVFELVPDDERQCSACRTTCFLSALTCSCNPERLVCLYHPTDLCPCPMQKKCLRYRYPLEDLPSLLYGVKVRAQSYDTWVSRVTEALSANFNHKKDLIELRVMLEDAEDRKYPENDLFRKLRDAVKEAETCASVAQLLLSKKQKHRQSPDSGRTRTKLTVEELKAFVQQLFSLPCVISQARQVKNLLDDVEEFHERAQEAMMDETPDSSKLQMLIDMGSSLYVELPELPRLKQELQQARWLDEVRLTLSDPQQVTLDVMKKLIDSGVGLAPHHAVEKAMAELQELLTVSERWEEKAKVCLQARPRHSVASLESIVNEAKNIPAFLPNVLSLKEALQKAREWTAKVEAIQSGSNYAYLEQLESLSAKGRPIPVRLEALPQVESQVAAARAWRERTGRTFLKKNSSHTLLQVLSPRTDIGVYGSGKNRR
Assay: Jarid1A in vitro enzyme inhibition assay (TR-FRET)
Type: biochemical
Method in brief: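 Demethylation of 300 nM biotin-H3K4me3 peptide by 1 nM baculovirus-expressed Jarid1A (aa 1–1090) with 2 μM α-ketoglutarate, Fe(II) and ascorbate, pH 7.3, 30 min at room temperature. Stopped with EDTA; H3K4me1-2 product detected by TR-FRET (Eu anti-H3K4me1-2/streptavidin-APC). IC50 fitted from 665/615 ratio over 11-point dilutions.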

Row | Structure (SMILES) | IC50 [nM]
1 | O=S(=O)(C1CC1)N1CCCC(n2cc(Oc3nc(O)c4ccncc4n3)cn2)C1 (stereo in doubt) [Example 151, 2-({1-[(3S)-1-(cyclopropanesulfonyl)piperidin-3-yl]-1H-pyrazol-4-yl}oxy)pyrido[3,4-d]pyrimidin-4-ol] | ≤ 100
2 | Oc1nc(Oc2cnn(C3CCCN(c4ccc(F)cc4)C3)c2)nc2cnccc12 (stereo in doubt) [Example 169, 2-({1-[(3R)-1-(4-fluorophenyl)piperidin-3-yl]-1H-pyrazol-4-yl}oxy)pyrido[3,4-d]pyrimidin-4-ol] | ≤ 100
3 | Oc1nc(OCCC(F)(F)F)nc2cnccc12 [Example 13, 2-(3,3,3-trifluoropropoxy)pyrido[3,4-d]pyrimidin-4-ol] | ≤ 100
4 | CC(C)COc1nc(O)c2ccncc2n1 [Example 14, 2-(2-methylpropoxy)pyrido[3,4-d]pyrimidin-4-ol] | 100 to 1000
5 | CC(C)CCOc1nc(O)c2ccncc2n1 [Example 15, 2-(3-methylbutoxy)pyrido[3,4-d]pyrimidin-4-ol] | ≤ 100
6 | CCC(C)COc1nc(O)c2ccncc2n1 (stereo not shown) [Example 16, 2-(2-methylbutoxy)pyrido[3,4-d]pyrimidin-4-ol] | 100 to 1000
7 | CC(COc1nc(O)c2ccncc2n1)c1ccccc1 (stereo not shown) [Example 17, 2-(2-phenylpropoxy)pyrido[3,4-d]pyrimidin-4-ol] | 100 to 1000
8 | Oc1nc(OCCc2ccccc2)nc2cnccc12 [Example 18, 2-(2-phenylethoxy)pyrido[3,4-d]pyrimidin-4-ol] | ≤ 100
9 | CC(Cc1ccccc1)Oc1nc(O)c2ccncc2n1 (stereo not shown) [Example 19, 2-(1-phenylpropan-2-yloxy)pyrido[3,4-d]pyrimidin-4-ol] | 1000 to 10000
10 | Oc1nc(OCCCC(F)(F)F)nc2cnccc12 [Example 20, 2-(4,4,4-trifluorobutoxy)pyrido[3,4-d]pyrimidin-4-ol] | ≤ 100
11 | CN(C)CCCOc1nc(O)c2ccncc2n1 [Example 21, 2-[3-(dimethylamino)propoxy]pyrido[3,4-d]pyrimidin-4-ol] | 100 to 1000
12 | COCCOc1nc(O)c2ccncc2n1 [Example 22, 2-(2-methoxyethoxy)pyrido[3,4-d]pyrimidin-4-ol] | 100 to 1000
13 | Cn1cnc(-c2nccc3c(O)nc(OCc4ccccc4C(F)(F)F)nc23)c1 [Example 107, 8-(1-methyl-1H-imidazol-4-yl)-2-{[2-(trifluoromethyl)phenyl]methoxy}pyrido[3,4-d]pyrimidin-4-ol] | 100 to 1000
14 | Cn1cnc(-c2nccc3c(O)nc(O[C@H](c4ccccc4)C(F)(F)F)nc23)c1 [Example 108, 8-(1-methyl-1H-imidazol-4-yl)-2-[(1R)-2,2,2-trifluoro-1-phenylethoxy]pyrido[3,4-d]pyrimidin-4-ol] | 1000 to 10000
15 | Cn1cnc(-c2nccc3c(O)nc(O[C@@H](c4ccccc4)C(F)(F)F)nc23)c1 [Example 109, 8-(1-methyl-1H-imidazol-4-yl)-2-[(1S)-2,2,2-trifluoro-1-phenylethoxy]pyrido[3,4-d]pyrimidin-4-ol] | 1000 to 10000
16 | CCC(Oc1nc(O)c2ccnc(-c3cn(C)cn3)c2n1)C(F)(F)F (stereo not shown) [Example 110, 8-(1-methyl-1H-imidazol-4-yl)-2-[(1,1,1-trifluorobutan-2-yl)oxy]pyrido[3,4-d]pyrimidin-4-ol] | 100 to 1000
17 | Cn1cnc(-c2nccc3c(O)nc(OCc4ccc(C(F)(F)F)cc4)nc23)c1 [Example 111, 8-(1-methyl-1H-imidazol-4-yl)-2-{[4-(trifluoromethyl)phenyl]methoxy}pyrido[3,4-d]pyrimidin-4-ol] | ≤ 100
18 | Cn1cnc(-c2nccc3c(O)nc(OCc4ccc(Cl)cc4)nc23)c1 [Example 112, 2-[(4-chlorophenyl)methoxy]-8-(1-methyl-1H-imidazol-4-yl)pyrido[3,4-d]pyrimidin-4-ol] | 100 to 1000
19 | Cn1cnc(-c2nccc3c(O)nc(Oc4ccc(Cl)c(Cl)c4)nc23)c1 [Example 113, 2-(3,4-dichlorophenoxy)-8-(1-methyl-1H-imidazol-4-yl)pyrido[3,4-d]pyrimidin-4-ol] | ≤ 100

Row | Structure (SMILES) | IC50 [nM]
20 | Oc1nc(Oc2ccc(Cl)c(Cl)c2)nc2cnccc12 [Example 114, 2-(3,4-dichlorophenoxy)pyrido[3,4-d]pyrimidin-4-ol] | 100 to 1000
21 | CCC(c1ccccc1)n1cc(Oc2nc(O)c3ccncc3n2)cn1 (stereo not shown) [Example 115, 2-{[1-(1-phenylpropyl)-1H-pyrazol-4-yl]oxy}pyrido[3,4-d]pyrimidin-4-ol] | ≤ 100
22 | Oc1nc(Oc2cnn(C(c3ccccc3)C3CC3)c2)nc2cnccc12 (stereo not shown) [Example 116, 2-({1-[cyclopropyl(phenyl)methyl]-1H-pyrazol-4-yl}oxy)pyrido[3,4-d]pyrimidin-4-ol] | ≤ 100
23 | C[C@H](c1ccccc1)n1cc(Oc2nc(O)c3ccncc3n2)cn1 [Example 117, 2-({1-[(1R)-1-phenylethyl]-1H-pyrazol-4-yl}oxy)pyrido[3,4-d]pyrimidin-4-ol] | ≤ 100
24 | C[C@@H](c1ccccc1)n1cc(Oc2nc(O)c3ccncc3n2)cn1 [Example 118, 2-({1-[(1S)-1-phenylethyl]-1H-pyrazol-4-yl}oxypyrido) [3,4-d]pyrimidin-4-ol] | ≤ 100
25 | C[C@H](c1ccccc1F)n1cc(Oc2nc(O)c3ccncc3n2)cn1 [Example 119, 2-({1-[(1R)-1-(2-fluorophenyl)ethyl]-1H-pyrazol-4-yl}oxy)pyrido[3,4-d]pyrimidin-4-ol] | ≤ 100
26 | C[C@@H](c1ccccc1F)n1cc(Oc2nc(O)c3ccncc3n2)cn1 [Example 120, 2-({1-[(1s)-1-(2-fluorophenyl)ethyl]-1H-pyrazol-4-yl}oxy)pyrido[3,4-d]pyrimidin-4-ol] | ≤ 100
27 | Oc1nc(Oc2cnn(Cc3ccccc3Cl)c2)nc2cnccc12 [Example 121, 2-({1-[(2-chlorophenyl)methyl]-1H-pyrazol-4-yl}oxy)pyrido[3,4-d]pyrimidin-4-ol] | ≤ 100
28 | Oc1nc(Oc2cnn(Cc3cccc(Cl)c3)c2)nc2cnccc12 [Example 122, 2-({1-[(3-chlorophenyl)methyl]-1H-pyrazol-4-yl}oxy)pyrido[3,4-d]pyrimidin-4-ol] | ≤ 100
29 | Oc1nc(Oc2cnn(C3CCN(Cc4ccccc4)CC3)c2)nc2cnccc12 [Example 123, 2-{[1-(1-benzylpiperidin-4-yl)-1H-pyrazol-4-yl]oxy}pyrido[3,4-d]pyrimidin-4-ol] | ≤ 100
30 | Oc1nc(Oc2cnn(CCN3CCOCC3)c2)nc2cnccc12 [Example 124, 2-({1-[2-(morpholin-4-yl)ethyl]-1H-pyrazol-4-yl}oxy)pyrido[3,4-d]pyrimidin-4-ol] | ≤ 100
31 | Oc1nc(Oc2cnn([C@@H]3CCNC3)c2)nc2cnccc12 [Example 125, 2-({1-[(3R)-pyrrolidin-3-yl]-1H-pyrazol-4-yl}oxy)pyrido[3,4-d]pyrimidin-4-ol] | ≤ 100
32 | CCS(=O)(=O)N1CC[C@@H](n2cc(Oc3nc(O)c4ccncc4n3)cn2)C1 [Example 126, 2-({1-[(3R)-1-(ethanesulfonyl)pyrrolidin-3-yl]-1H-pyrazol-4-yl}oxy)pyrido[3,4-d]pyrimidin-4-ol] | ≤ 100
33 | O=S(=O)(C1CC1)N1CC[C@@H](n2cc(Oc3nc(O)c4ccncc4n3)cn2)C1 [Example 127, 2-({1-[(3R)-1-(cyclopropanesulfonyl)pyrrolidin-3-yl]-1H-pyrazol-4-yl}oxy)pyrido[3,4-d]pyrimidin-4-ol] | ≤ 100
34 | O=S(=O)(c1ccccc1)N1CC[C@@H](n2cc(Oc3nc(O)c4ccncc4n3)cn2)C1 [Example 128, 2-({1-[(3R)-1-(benzenesulfonyl)pyrrolidin-3-yl]-1H-pyrazol-4-yl}oxy)pyrido[3,4-d]pyrimidin-4-ol] | ≤ 100
35 | CC(=O)N1CC[C@@H](n2cc(Oc3nc(O)c4ccncc4n3)cn2)C1 [Example 129, 1-[(3R)-3-[4-({4-hydroxypyrido[3,4-d]pyrimidin-2-yl}oxy)-1H-pyrazol-1-yl]pyrrolidin-1-yl]ethan-1-one] | ≤ 100
36 | N#CCC(=O)N1CC[C@@H](n2cc(Oc3nc(O)c4ccncc4n3)cn2)C1 [Example 130, 3-[(3R)-3-[4-({4-hydroxypyrido[3,4-d]pyrimidin-2-yl}oxy)-1H-pyrazol-1-yl]pyrrolidin-1-yl]-3-oxopropanenitrile] | ≤ 100
37 | O=C(C1CC1)N1CC[C@@H](n2cc(Oc3nc(O)c4ccncc4n3)cn2)C1 [Example 131, 2-({1-[(3R)-1-cyclopropanecarbonylpyrrolidin-3-yl]-1H-pyrazol-4-yl}oxy)pyrido[3,4-d]pyrimidin-4-ol] | ≤ 100
